Experimental data taken from patent publication US5747239A, “Synthetic peptides specific for the detection of antibodies to HCV, diagnosis of HCV infection and preventions thereof as vaccines” (United Biomedical, Inc., priority 1994, dated 1998).

Experiments:
Assay type in all cases: binding, human
[1] = test system: antibodies to HCV; test: Envelope/NS-1 peptide ELISA, anti-HCV positive plasmapheresis donors with elevated ALT (Panel III); conditions: for % Relative Immunoreactivity: envelope/NS-1 peptides, Panel III (17 samples), peptide 254B as a standard
Experimental: To select a panel of samples with reactivity to peptides from the envelope/NS-1 region, 97 such samples from anti-HCV positive plasmapheresis donors with elevated ALT levels were tested with peptide 254B. […] 17 samples with the greatest reactivity with peptide 254B were chosen to form a third panel (Panel III) to screen for the immunoreactivity of the other 20 peptides from the envelope/NS-1 region. The individual absorbance values of each of the 17 samples on the four peptides with the greatest reactivity, i.e. 255C (pep7), 254B (pep8), 247B (pep9), and 246D (pep10), are listed in Table 8b.

[2] = test system: antibodies to HCV; test: Envelope/NS-1 peptide ELISA, samples nonreactive on HCV core (VIIIE) and NS-4 (IIH) peptides
Experimental: In addition to screening on Panel III samples, the envelope/NS-1 peptides were also tested against samples from plasmapheresis donors who had elevated ALT levels but were non-reactive on the HCV from the core (e.g. peptide VIIIE) and NS-4 (e.g. peptide IIH) regions screening EIA. Six of these samples, which may represent early seroconversion samples, were reactive on one or more envelope/NS-1 peptide (Table 8d). The absorbance values on these HCV EIA nonreactive samples are lower than the values found for Panel III samples. In the case of Pep7 and Pep10, their shorter segments, 225B and 246C, respectively, gave greater immunoreactivity, in contrast to the performance on Panel III.

[3] = test system: antibodies to HCV; test: NS-5 peptide ELISA, group of 5 HCV positive sera
Experimental: Wells of 96-well plates were coated for 1 hour at 37° C. with each of the three peptides derived from the NS-5 region of HCV (designated as pep4, pep5 and pep6).

[4] = test system: antibodies to HCV; test: Peptide ELISA for relative immunoreactivity, 8 member HCV serum panel (Panel I); conditions: NS-5 peptides (Table 12); Panel I; pep11 as a standard
Experimental: As an example to illustrate how relative (%) immunoreactivity for HCV synthetic peptides is measured, wells of 96-well plates are coated for 1 hour at 37° C., with each of the following peptides: IIH, V, VIIIE and pep11 at 5 ug/mL at 100 uL per well in 10 mM NaHCO3 buffer, pH 9.5. The peptide coated wells were then incubated with 250 uL of 3% by weight of gelatin in PBS in 37° C. for 1 hour to block non-specificprotein binding sites, followed by three washes with PBS containing 0.05% by volume of TWEEN 20 and then dried. The test specimens containing a panel of eight well-characterized HCV antibody positive patient sera were diluted with PBS containing 20% by volume normal goat serum, 1% by weight gelatin and 0.05% by volume TWEEN 20 at dilutions of 1:20 volume to volume, respectively. 200 uL of the diluted specimens were added to each of the wells and allowed to react for 15 minutes at 37° C.
The wells were then washed six times with 0.05% by volume TWEEN 20 in PBS in order to remove unbound antibodies. Horseradish peroxidase conjugated goat anti-human IgG was used as a second antibody tracer to bind with the HCV antibody-peptide antigen complex formed in positive wells. 100 uL of peroxidase labeled goat anti-human IgG at a dilution of 1:1800 in 1% by volume normal goat serum, 0.05% by volume TWEEN 20 in PBS was added to each well and incubated at 37° C. for another 15 minutes.
The wells were washed six times with 0.05% by volume TWEEN 20 PBS to remove unbound antibody and reacted with 100 uL of the substrate mixture containing 0.04% by weight orthophenylenediamine (OPD) and 0.12% by volume hydrogen peroxide in sodium citrate buffer, pH 5.0.
This substrate mixture was used to detect the peroxidase label by forming a colored product. Reactions were stopped by the addition of 100 uL of 1.0M H2 SO4 and the A492 mm measured. Results of relative immunoreactivity for each of the peptides obtained from this study are shown in Table A using peptide II H as the reference.

[5] = test system: antibodies to HCV; test: EIA of NS-3 peptides before and after pH adjustment
Experimental: Peptides dissolved at 1 mg/mL in H2 O, pH 4, were titrated to pH 11 by addition of diluted NaOH. After 5 min at pH 11, the pH of the peptide solution was brought down to 7.0 using diluted HCl. Immunoreactivity of the peptides thus treated was compared with reactivity prior to pH adjustment (Table 4E). Two-to three-fold increases in A492 nm were seen. Some previously non-reactive serum samples were able to react with pH adjusted peptides. For instance, serum sample 1, which is non-reactive to 261C, has an absorbance of 1401 mA when tested with the corresponding pH adjusted peptide.

[6] = test system: antibodies to HCV; test: Peptide ELISA for relative immunoreactivity, 8 member HCV serum panel (Panel I); conditions: NS-3 peptides (Tables 4B-4D), relative to pep3 (279A)
[7] = sample 1 (first line, number not given)
[8] = serum sample 1, Ctrl (prior to pH adjustment)
[9] = serum sample 1, pH adj (pH 11 for 5 min, then 7.0)

VRNSTGLYHVTNDCPNSSIVYEAHDAILHTPGCPCVREGNVSRC [255B]
% Relative Immunoreactivity [1]: 18.7%
Absorbance ([2]; sample 4): 0.021
Absorbance ([2]; sample 6): 0.012

DPSHITAEAAGRRLARGSPPSVASSSASQLSAPSLKATCTANHDSP [Pep4]
% Relative Immunoreactivity ([3]; NS-5 peptides, 5 HCV positive sera, Pep5 = 100): 28.6%
EIA reading per sample ([3]; Sample No. 1): 0.468
EIA reading per sample ([3]; Sample No. 2): 0.659
EIA reading per sample ([3]; Sample No. 3): 0.675
EIA reading per sample ([3]; Sample No. 4): 0.063
EIA reading per sample ([3]; Sample No. 5): 0.144
% IP [4]: 17.1%

WHINSTALNCNESLNTGWLAGLIYQHKFNSSGCPERLASC [246D]
Absorbance ([1]; Panel III sample 1): 1.085
Absorbance ([1]; Panel III sample 2): 0.068
Absorbance ([1]; Panel III sample 3): 0.090
Absorbance ([1]; Panel III sample 5): 0.077
Absorbance ([1]; Panel III sample 9): 0.334
Absorbance ([1]; Panel III sample 10): 1.488
Absorbance ([1]; Panel III sample 11): 0.045
Absorbance ([1]; Panel III sample 12): 0.408
Absorbance ([1]; Panel III sample 13): 0.451
Absorbance ([1]; Panel III sample 14): 0.037
Absorbance ([1]; Panel III sample 16): 0.810
Absorbance ([1]; Panel III sample 17): 0.111
% Relative Immunoreactivity [1]: 98.6%
Absorbance [2, 7]: 0.068
Absorbance ([2]; sample 2): 0.028
Absorbance ([2]; sample 3): 0.029
Absorbance ([2]; sample 4): 0.049
Absorbance ([2]; sample 5): 0.009
Absorbance ([2]; sample 6): 0.102

CLTVPASAYQVRNSTGLYHVTNDCPNSSIVYEAHDAILHTPGCVPCVREGNVSRC [255C]
Absorbance ([1]; Panel III sample 2): 0.017
Absorbance ([1]; Panel III sample 3): 0.235
Absorbance ([1]; Panel III sample 4): 0.066
Absorbance ([1]; Panel III sample 5): 0.711
Absorbance ([1]; Panel III sample 6): 0.106
Absorbance ([1]; Panel III sample 7): 0.784
Absorbance ([1]; Panel III sample 8): 0.037
Absorbance ([1]; Panel III sample 9): 0.019
Absorbance ([1]; Panel III sample 10): 0.313
Absorbance ([1]; Panel III sample 11): 0.035
Absorbance ([1]; Panel III sample 14): 0.047
Absorbance ([1]; Panel III sample 15): 0.012
Absorbance ([1]; Panel III sample 16): 0.064
Absorbance ([1]; Panel III sample 17): 0.077
% Relative Immunoreactivity [1]: 51.4%
Absorbance [2, 7]: 0.098
Absorbance ([2]; sample 2): 0.346
Absorbance ([2]; sample 3): 0.300
Absorbance ([2]; sample 4): 0.021
Absorbance ([2]; sample 5): 0.231
Absorbance ([2]; sample 6): 0.017

SVTVPHPNIEEVALSTTGEIPFYGKAIPLEVIKGGRHLIFCHSKKKCDEL [261C]
relative immunopotency ([5]; after pH adjustment, compared with the standard pep3 (279A)): 68.5%
A492 nm (mA) by EIA [5, 8]: 6 mA
A492 nm (mA) by EIA [5, 9]: 1401 mA
A492 nm (mA) by EIA ([5]; serum sample 2, Ctrl): 5 mA
A492 nm (mA) by EIA ([5]; serum sample 2, pH adj): 499 mA
A492 nm (mA) by EIA ([5]; serum sample 3, Ctrl): 24 mA
A492 nm (mA) by EIA ([5]; serum sample 3, pH adj): 175 mA
A492 nm (mA) by EIA ([5]; serum sample 4, Ctrl): 27 mA
A492 nm (mA) by EIA ([5]; serum sample 4, pH adj): 351 mA
% Relative Immunoreactivity [6]: 3.2%

INSTALNCNESLNTGWLAGLIYQHKFNSSGCPERLASC [246C]
% Relative Immunoreactivity [1]: 97.6%
Absorbance [2, 7]: 0.240
Absorbance ([2]; sample 2): 0.015
Absorbance ([2]; sample 3): 0.023
Absorbance ([2]; sample 4): 0.046
Absorbance ([2]; sample 5): 0.009

B1: SVAATLGFGAYMSKAHGIDPNIRTGVRTITTGSPITYSTYGKFLADGGCSGGAYDIIICDECHSTDAT (peptide)
chain: SVAATLGFGAYMSKAHGIDPNIRTGVRTITTGSPITYSTYGKFLADGGCSGGAYDIIICDECHSTDAT
% Relative Immunoreactivity [6]: 4.7%

B2: AHGIDPNIRTGVRTITTGSPITYSTYGKFLADGGCSGGAYDIIICDECHSTDATSILGIGTVLDQAETAGARLVVLATATPPGSVTVPHPNIEEVAL (peptide)
chain: AHGIDPNIRTGVRTITTGSPITYSTYGKFLADGGCSGGAYDIIICDECHSTDATSILGIGTVLDQAETAGARLVVLATATPPGSVTVPHPNIEEVAL
% Relative Immunoreactivity [6]: 3.9%

B3: GYKVLVLNPSVAATLGFGAYMSKAHGIDPNIRTGVRTITTGSPITYSTYGKFLADGGCSGGAYDIIICDECHSTDATSILGIGTVLDQAETAGARLVVLATATPPGSVTVPHPNIEEVAL (peptide)
chain: GYKVLVLNPSVAATLGFGAYMSKAHGIDPNIRTGVRTITTGSPITYSTYGKFLADGGCSGGAYDIIICDECHSTDATSILGIGTVLDQAETAGARLVVLATATPPGSVTVPHPNIEEVAL
% Relative Immunoreactivity [6]: 2.8%

B4: GYKVLVLNPSVAATLGFGAYMSKAHGIDPNIRTGVRTITTGSPITYSTYGKFLADGGCSGGAYDIIICDECHSTDAT (peptide)
chain: GYKVLVLNPSVAATLGFGAYMSKAHGIDPNIRTGVRTITTGSPITYSTYGKFLADGGCSGGAYDIIICDECHSTDAT
% Relative Immunoreactivity [6]: 5.1%

B5: TVLDQAETAGARLVVLATATPPGSVTVPHPNIEEVALSTTGEIPFYGKAIPLEVIKGGRHLIFCHSKKKCDEL (peptide)
chain: TVLDQAETAGARLVVLATATPPGSVTVPHPNIEEVALSTTGEIPFYGKAIPLEVIKGGRHLIFCHSKKKCDEL
% Relative Immunoreactivity [6]: 15.8%

B6: LVLNPSVAATLGFGAYMSKAHGIDPNIRTGVRTITTGSPITYSTYGKFLADGGCSGGAYDIIICDECHS (peptide)
chain: LVLNPSVAATLGFGAYMSKAHGIDPNIRTGVRTITTGSPITYSTYGKFLADGGCSGGAYDIIICDECHS
A492 nm (mA) by EIA [5, 8]: 210 mA
A492 nm (mA) by EIA [5, 9]: 591 mA
A492 nm (mA) by EIA ([5]; serum sample 2, Ctrl): 37 mA
A492 nm (mA) by EIA ([5]; serum sample 2, pH adj): 159 mA
A492 nm (mA) by EIA ([5]; serum sample 3, Ctrl): 0 mA
A492 nm (mA) by EIA ([5]; serum sample 3, pH adj): 217 mA
A492 nm (mA) by EIA ([5]; serum sample 4, Ctrl): 124 mA
A492 nm (mA) by EIA ([5]; serum sample 4, pH adj): 311 mA
% Relative Immunoreactivity [6]: 11.1%
